From US8304446B2, “Compounds” (Glaxo Group Limited, priority 2009, dated 2012)
Counter-ions that a name gives are not always drawn.

test system: CD4+ CCR4+ T cells; experiment: Chemokine stimulated increases in cellular F-actin content; type: cell-based; settings: Homo sapiens, T-cell, 0.5 h; PBMC from normal volunteers; antagonist 30 min at 37° C. before agonist for 15 sec; F-actin content by flow cytometry; read-out: pA2 (converted)
Description: Chemokine Stimulated Increases in Cellular F-Actin Content
Blood was taken from normal volunteers who had taken no medication within the previous ten days and mixed with 1/9 of the volume of 3.8% tri-sodium citrate solution. Chemokine-induced increases in the F-actin content of CD4+ CCR4+ T cells were measured by a modification of the method of Pilette et al. (Eur. Respir. J; 23: 876-884, 2004). Peripheral blood mononuclear cells (PBMC) were isolated by dextran sedimentation followed by Percoll density gradient centrifugation. The PBMCs were incubated with FITC-conjugated anti-human CD4 and PE-conjugated anti-CCR4 antibodies or appropriate isotype controls for 15 min. The cell suspensions were then centrifuged at 400 g for 10 min and the pellets resuspended in assay buffer (phenol red-free RPMI 1640 medium containing 10 mM HEPES and 0.1% bovine serum albumin) at 10^7/mL. The resulting cell suspension was incubated with antagonist or vehicle (0.1% DMSO) for 30 min at 37° C. before stimulation with the agonist for 15 sec. The assay was terminated by addition of 3% formaldehyde. The fixed cells were washed twice with PBS (centrifuging at 1000 g for 5 min to recover the cells) and incubated at room temperature with Alexa fluor-647 phalloidin (0.075 U/mL) in the presence of lyso-phosphatidylcholine (93.75 μg/ml) for 20 min to stain F-actin. The cells were washed once more with PBS and the relative F-actin content of the cells was measured flow cytometrically. The mean fluorescence intensity of 1000 CD4^+ CCR4^+ cells per sample was determined and expressed as a fraction of the mean intensity of the CD4^+ CCR4^− cells in that sample.

Compound	Kb
COc1ccc(Cn2nc(NS(=O)(=O)c3ccc(C)s3)c3c(OC)cccc32)cc1OC [Example 118, N-[1-{[3,4-Bis(methyloxy)phenyl]methyl}-4-(methyloxy)-1H-indazol-3-yl]-5-methyl-2-thiophenesulfonamide]	≤ 126 nM
COc1cccc2c1c(NS(=O)(=O)c1ccc(Cl)s1)nn2Cc1cccc(C(N)=O)c1 [Example 64, 3-{[3-{[(5-Chloro-2-thienyl)sulfonyl]amino}-4-(methyloxy)-1H-indazol-1-yl]methyl}benzamide]	≤ 126 nM
O=C(NCc1cccc(Cn2nc(NS(=O)(=O)c3ccc(Cl)s3)c3c(O)cccc32)c1)[C@@H]1COCCN1 [Example 166, (3S)—N-({3-[(3-{[(5-Chloro-2-thienyl)sulfonyl]amino}-4-hydroxy-1H-indazol-1-yl)methyl]phenyl}methyl)-3-morpholinecarboxamide formate salt]	≤ 126 nM
COc1cccc2c1c(NS(=O)(=O)c1ccc(Cl)s1)nn2Cc1cccc(CNC(=O)CCN)c1 [Example 78, N^1-[(3-{[3-{[(5-Chloro-2-thienyl)sulfonyl]amino}-4-(methyloxy)-1H-indazol-1-yl]methyl}phenyl)methyl]-β-alaninamide trifluoroacetate]	≤ 126 nM
COC(=O)[C@@H](N)CC(=O)NCc1cccc(Cn2nc(NS(=O)(=O)c3ccc(Cl)s3)c3c(OC)cccc32)c1 [Example 23, Methyl N^4-[(3-{[3-{[(5-chloro-2-thienyl)sulfonyl]amino}-4-(methyloxy)-1H-indazol-1-yl]methyl}phenyl)methyl]asparaginate trifluoroacetate]	≤ 126 nM
COc1cccc2c1c(NS(=O)(=O)c1ccc(Cl)s1)nn2Cc1cccc(CNC(=O)CC2CCCN2)c1 (stereo not drawn) [Example 24, N-[(3-{[3-{[(5-chloro-2-thienyl)sulfonyl]amino}-4-(methyloxy)-1H-indazol-1-yl]methyl}phenyl)methyl]-2-(2-pyrrolidinyl)acetamide trifluoroacetate]	≤ 126 nM
COc1ccc(Cn2nc(NS(=O)(=O)c3ccc(Cl)s3)c3c(OC)cccc32)cc1OC [Example 53, N-[1-{[3,4-Bis(methyloxy)phenyl]methyl}-4-(methyloxy)-1H-indazol-3-yl]-5-chloro-2-thiophenesulfonamide]	≤ 126 nM
COc1cc(F)cc2c1c(NS(=O)(=O)c1ccc(Cl)s1)nn2Cc1cccc(CNC(C)=O)c1 [Example 129, N-[(3-{[3-{[(5-Chloro-2-thienyl)sulfonyl]amino}-6-fluoro-4-(methyloxy)-1H-indazol-1-yl]methyl}phenyl)methyl]acetamide]	≤ 126 nM
COc1cccc2c1c(NS(=O)(=O)c1ccc(Cl)s1)nn2Cc1cccc(CNC(=O)[C@H]2CCCCN2)c1 [Example 9, (2R)—N-[(3-{[3-{[(5-chloro-2-thienyl)sulfonyl]amino}-4-(methyloxy)-1H-indazol-1-yl]methyl}phenyl)methyl]-2-piperidinecarboxamide trifluoroacetate salt]	≤ 126 nM
COc1cccc2c1c(NS(=O)(=O)c1ccc(Cl)s1)nn2Cc1cccc(CNC(=O)[C@@]2(C)CCCN2)c1 [Example 13, N-[(3-{[3-{[(5-Chloro-2-thienyl)sulfonyl]amino}-4-(methyloxy)-1H-indazol-1-yl]methyl}phenyl)methyl]-2-methyl-D-prolinamide]	≤ 126 nM
COc1cccc2c1c(NS(=O)(=O)c1ccc(Cl)s1)nn2Cc1cccc(CNC(=O)[C@H](C)N(C)C)c1 [Example 31, N^1-[(3-{[3-{[(5-Chloro-2-thienyl)sulfonyl]amino}-4-(methyloxy)-1H-indazol-1-yl]methyl}phenyl)methyl]-N^2,N^2-dimethylalaninamide trifluoroacetate]	≤ 126 nM
CNCC(=O)NCc1cccc(Cn2nc(NS(=O)(=O)c3ccc(Cl)s3)c3c(OC)cccc32)c1 [Example 12, N^1-[(3-{[3-{[(5-chloro-2-thienyl)sulfonyl]amino}-4-(methyloxy)-1H-indazol-1-yl]methyl}phenyl)methyl]-N^2-methylglycinamide hydrochloride]	≤ 126 nM
COc1cccc2c1c(NS(=O)(=O)c1ccc(Cl)s1)nn2Cc1cccc(CNC(=O)C2(N)CC2)c1 [Example 84, 1-Amino-N-[(3-{[3-{[(5-chloro-2-thienyl)sulfonyl]amino}-4-(methyloxy)-1H-indazol-1-yl]methyl}phenyl)methyl]cyclopropanecarboxamide trifluoroacetate]	≤ 126 nM
COc1cccc2c1c(NS(=O)(=O)c1ccc(Cl)s1)nn2Cc1cccc(CNC(=O)NC(C)C)c1 [Example 61, 5-Chloro-N-[1-({3-[({[(1-methylethyl)amino]carbonyl}amino)methyl]phenyl}methyl)-4-(methyloxy)-1H-indazol-3-yl]-2-thiophenesulfonamide]	≤ 126 nM
COCC(=O)NCc1cccc(Cn2nc(NS(=O)(=O)c3ccc(Cl)s3)c3c(OC)cccc32)c1 [Example 30, N-[(3-{[3-{[(5-Chloro-2-thienyl)sulfonyl]amino}-4-(methyloxy)-1H-indazol-1-yl]methyl}phenyl)methyl]-2-(methyloxy)acetamide]	≤ 126 nM
CNC(=O)Cc1cccc(Cn2nc(NS(=O)(=O)c3ccc(Cl)s3)c3c(OC)cccc32)c1 [Example 63, 2-(3-{[3-{[(5-Chloro-2-thienyl)sulfonyl]amino}-4-(methyloxy)-1H-indazol-1-yl]methyl}phenyl)-N-methylacetamide]	≤ 126 nM
COc1cccc2c1c(NS(=O)(=O)c1ccc(Br)s1)nn2Cc1cccc(C(N)=O)c1 [Example 67, 3-{[3-{[(5-Bromo-2-thienyl)sulfonyl]amino}-4-(methyloxy)-1H-indazol-1-yl]methyl}benzamide]	≤ 126 nM
COc1cccc2c1c(NS(=O)(=O)c1ccc(Cl)s1)nn2Cc1cccc(CNC(=O)[C@@H]2CCCN2)c1 [Example 158, N-[(3-{[3-{[(5-Chloro-2-thienyl)sulfonyl]amino}-4-(methyloxy)-1H-indazol-1-yl]methyl}phenyl)methyl]-L-prolinamide trifluoroacetate]	≤ 126 nM
CNC1(C(=O)NCc2cccc(Cn3nc(NS(=O)(=O)c4ccc(Cl)s4)c4c(OC)cccc43)c2)CC1 [Example 15, N-[(3-{[3-{[(5-Chloro-2-thienyl)sulfonyl]amino}-4-(methyloxy)-1H-indazol-1-yl]methyl}phenyl)methyl]-1-(methylamino)cyclopropanecarboxamide hydrochloride]	≤ 126 nM
COc1cccc2c1c(NS(=O)(=O)c1ccc(Cl)s1)nn2Cc1cccc(S(N)(=O)=O)c1 [Example 77, N-[1-{[3-(aminosulfonyl)phenyl]methyl}-4-(methyloxy)-1H-indazol-3-yl]-5-chloro-2-thiophenesulfonamide]	≤ 126 nM
COc1ccc(Cn2nc(NS(=O)(=O)c3ccc(Cl)s3)c3c(OC)cccc32)cc1OCCN(C)C [Example 110, 5-Chloro-N-[1-{[3-{[2-(dimethylamino)ethyl]oxy}-4-(methyloxy)phenyl]methyl}-4-(methyloxy)-1H-indazol-3-yl]-2-thiophenesulfonamide]	≤ 126 nM
COc1cccc2c1c(NS(=O)(=O)c1ccc(Cl)s1)nn2Cc1cccc(CNC(=O)[C@H]2CCCN2C)c1 [Example 40, N-[(3-{[3-{[(5-Chloro-2-thienyl)sulfonyl]amino}-4-(methyloxy)-1H-indazol-1-yl]methyl}phenyl)methyl]-1-methyl-D-prolinamide trifluoroacetate]	≤ 126 nM
COc1cccc2c1c(NS(=O)(=O)c1ccc(Cl)s1)nn2Cc1cccc(CNC(C)=O)c1 [Example 1, N-[(3-{[3-{[(5-Chloro-2-thienyl)sulfonyl]amino}-4-(methyloxy)-1H-indazol-1-yl]methyl}phenyl)methyl]acetamide]	≤ 126 nM
COc1cccc2c1c(NS(=O)(=O)c1ccc(Cl)s1)nn2Cc1cccc(CNC(=O)c2cnco2)c1 [Example 38, N-[(3-{[3-{[(5-Chloro-2-thienyl)sulfonyl]amino}-4-(methyloxy)-1H-indazol-1-yl]methyl}phenyl)methyl]-1,3-oxazole-5-carboxamide]	≤ 126 nM
COc1cccc2c1c(NS(=O)(=O)c1ccc(Cl)s1)nn2Cc1cccc(CNC(=O)[C@H]2CCN2)c1 [Example 50, (2R)—N-[(3-{[3-{[(5-Chloro-2-thienyl)sulfonyl]amino}-4-(methyloxy)-1H-indazol-1-yl]methyl}phenyl)methyl]-2-azetidinecarboxamide trifluoroacetate]	≤ 126 nM
COC[C@H](N)C(=O)NCc1cccc(Cn2nc(NS(=O)(=O)c3ccc(Cl)s3)c3c(OC)cccc32)c1 [Example 54, N^1-[(3-{[3-{[(5-Chloro-2-thienyl)sulfonyl]amino}-4-(methyloxy)-1H-indazol-1-yl]methyl}phenyl)methyl]-O-methylserinamide trifluoroacetate]	≤ 126 nM
COc1cccc2c1c(NS(=O)(=O)c1ccc(Cl)s1)nn2Cc1cccc(CNC(=O)C2CCCCN2C)c1 (stereo not drawn) [Example 42, N-[(3-{[3-{[(5-chloro-2-thienyl)sulfonyl]amino}-4-(methyloxy)-1H-indazol-1-yl]methyl}phenyl)methyl]-1-methyl-2-piperidinecarboxamide trifluoroacetate]	≤ 126 nM
